According to paper PMC7660940, “Gerardiins A–L and Structurally Related Phenanthrenes from the Halophyte Plant Juncus gerardii and Their Cytotoxicity against Triple-Negative Breast Cancer Cells” (Journal of Natural Products, 2020):
Where two headings read alike, the source gives them in different places.

Assays:
[1] = system: 4T1 (mouse triple-negative breast cancer cells); assay: MTT viability assay / IC50 determination in 4T1 cells; format: cell-based; details: for cytotoxicity (viability of 4T1 cells), MTT assay: 10 or 20 μM, Figure S74; for cytotoxicity (viability of 4T1 cells), MTT assay / cytotoxic effect on 4T1 cells, MTT assay: 48 h; for IC50: MTT assay, 48 h treatment, n = 6–8, read-out: IC50 [95% C.I.], 4T1; for cytotoxic effect on 4T1 cells, MTT assay: 20 μM
Method: (§1) 4T1 (mouse triple-negative breast cancer cells) were cultured in RPMI (Roswell Park Memorial Institute) 1640 medium supplemented with 5% fetal bovine serum (FBS) (both from Thermo Fisher Scientific, Waltham, MA, USA). MDA-MB-231 (human triple-negative breast cancer cells, abbreviated as MDA) were cultured in DMEM (Dulbecco’s modified Eagle’s medium, Thermo Fisher Scientific) + 5% FBS. D3 (hCMEC/D3 human cerebral microvascular endothelial cells) were kept in rat tail collagen-coated dishes in EBM-2 (endothelial basal medium-2, Lonza, Basel, Switzerland) complemented with 2% FBS and an EGM-2MV kit (Lonza).
(§2) Viability and impedance measurements were performed in the log growth phase of tumor cells and in the stationary phase of endothelial cells.
(§3) For the MTT (3-[4,5-dimethylthiazole-2-yl]-2,5-diphenyltetrazolium bromide) viability assay, cells were plated in 96-well plates (Corning, Corning, NY, USA). The seeding density of the cells was 5000/well (for 4T1 or MDA cells) or 25 000/well (for D3 cells). After 48 h, half of the medium was replaced with serum-free medium, containing the test compounds in a final concentration of 10 or 20 μM. Control wells received solvent (DMSO) in up to a 0.2% concentration. After 48 h, MTT reagent (Sigma-Aldrich, St. Louis, MO, USA) was added to the cells in a final concentration of 2.5 mg/mL. After incubation at 37 °C for 30 min, acidified isopropanol solution was added to each well. Absorbance was measured at 595 nm with a FLUOstar OPTIMA microplate reader (BMG LABTECH, Offenburg, Germany). Doxorubicin was used as a positive control, at a concentration of 10 μM.
(§4) For determining IC50 values, nine-step, 2-fold serial dilutions of the test compounds were applied, starting from 100 μM. Cells were treated for 48 h, and viability was measured with the MTT assay, as described above. Half-maximum inhibitory concentrations (IC50) were calculated via nonlinear dose–response curve fitting by the log(inhibitor) vs response (variable slope) model of GraphPad Prism 5.01 (GraphPad Software, San Diego, CA, USA) by using automatic outlier elimination at Q = 1.0.

[2] = system: MDA-MB-231 (human triple-negative breast cancer cells); assay: MTT viability assay / IC50 determination in MDA-MB-231 cells; format: cell-based; details: for cytotoxicity (viability of MDA cells), MTT assay: 10 or 20 μM, 48 h, Figure S74; for IC50: MTT assay, 48 h treatment, n = 6–8, read-out: IC50 [95% C.I.], MDA-MB-231
Method: as §1, §2, §3, §4

[3] = system: D3 (hCMEC/D3 human cerebral microvascular endothelial cells); assay: MTT viability assay / IC50 determination in D3 endothelial cells; format: cell-based; details: for cytotoxicity (viability of D3 cells), MTT assay: 10 or 20 μM, 48 h, Figure S74; for IC50: MTT assay, 48 h treatment, n = 6–8, read-out: IC50 [95% C.I.], D3
Method: as §1, §2, §3, §4

[4] = system: A2780 human ovarian cancer cells; design: method as in Bús et al. 8; details: ref Bús et al. 8; cited from earlier work
[5] = system: 4T1 (mouse triple-negative breast cancer cells); assay: Impedance measurement (xCELLigence RTCA, cell index) in 4T1 cells; format: cell-based; details: 20 μM, 48 h
Method: as §1, §2
For impedance measurements, cells were plated in 96-well E-plates having microelectrodes integrated on the bottom (ACEA Biosciences, San Diego, CA, USA) and allowed to attach onto the electrode surface for 48 h. Afterward, cells were treated with the test compounds as described above. Electrical impedance was recorded every 30 min for 48 h using an xCELLigence real-time cell analysis (RTCA) instrument (ACEA Biosciences). Cell index was automatically calculated by the software of the instrument.

[6] = system: HeLa cervical cancer cells; design: method as in PMID 31005716; details: cited from earlier work

Compound	cytotoxicity (viability of 4T1 cells), MTT assay [1]	cytotoxicity (viability of MDA cells), MTT assay [2]	cytotoxicity (viability of D3 cells), MTT assay [3]	cytotoxic effect on 4T1 cells, MTT assay [1]	cytotoxic effect on 4T1 cells, impedance measurements (cell index) [5]	also measured
C=Cc1cc(O)c(Cc2c(O)cc(C=C)c3c2ccc2c(C)c(O)ccc23)c2c1-c1ccc(O)c(C)c1CC2 [Compound 12, Gerardiin L]	cytotoxic	cytotoxic	cytotoxic			IC50 [1]: > 10 µM; IC50 ([1]; Mus musculus, 4T1, 48 h): 11.7 µM; IC50 ([2]; Homo sapiens, MDA-MB-231, 48 h): 7.3 µM; IC50 ([3]; Homo sapiens, hCMEC/D3): 13.7 µM
Gerardiin J [Compound 10]	cytotoxic	cytotoxic	cytotoxic			IC50 [1]: 5.6 µM; IC50 [2]: 6.6 µM; IC50 [3]: 15.7 µM
C=Cc1cc(O)cc2c1-c1cc(-c3cc4c(c(C)c3O)CCc3cc(O)cc(C=C)c3-4)c(O)c(C)c1CC2 [Compound 15, Effususin A]	cytotoxic	cytotoxic	cytotoxic			toxicity in A2780 human ovarian cancer cells [4]: moderate toxicity
C=Cc1cc(O)cc2c1-c1ccc(OC)c(C)c1CC2 [7-hydroxy-2-methoxy-1-methyl-5-vinyl-9,10-dihydrophenanthrene]				not cytotoxic	not cytotoxic	
C=C[C@@]1(C)C(=O)C2=C(C[C@H]1O)c1ccc(O)c(C)c1CC2 [jinflexin C]					moderate cytotoxicity	
C=Cc1c(C)c(O)cc2c1-c1ccc(O)c(C)c1CC2 [juncusol]				moderate cytotoxicity	moderate cytotoxicity	antiproliferative activity against HeLa cervical cancer cells [6]: antiproliferative activity
C=Cc1cc(O)cc2c1-c1ccc(O)c(C)c1CC2 [Compound 13, effusol]	no or very low cytotoxicity	no or very low cytotoxicity	no or very low cytotoxicity			
COC(C)c1cc(O)cc2c1-c1ccc(O)c(C)c1CC2 (stereo not drawn) [effususol A]				not cytotoxic	not cytotoxic	
C=Cc1cc(O)cc2ccc3c(C)c(O)ccc3c12 [Compound 14, dehydroeffusol]	no or very low cytotoxicity	no or very low cytotoxicity	no or very low cytotoxicity			
Gerardiin K [Compound 11]	cytotoxic	cytotoxic	cytotoxic			IC50 [1]: 8.1 µM; IC50 [2]: > 10 µM; IC50 [3]: 10.6 µM
Cc1c(O)ccc2c1CCc1cc(O)cc(CO)c1-2 [2,7-dihydroxy-5-hydroxymethyl-1-methyl-9,10-dihydrophenanthrene]				not cytotoxic	not cytotoxic	
C=Cc1c(C)c(O)cc2c1-c1ccc(OC)c(C)c1CC2 [compressin A]				not cytotoxic	not cytotoxic	
Cc1c(O)ccc2c1CCc1cc(O)cc(C=O)c1-2 [2,7-dihydroxy-5-formyl-1-methyl-9,10-dihydrophenanthrene]				not cytotoxic	not cytotoxic	
Cc1c(O)ccc2c1CCc1cc(O)cc(C3CC=Cc4c5c(cc(O)c43)CCc3c-5ccc(O)c3C)c1-2 (stereo not drawn) [Compound 9, Gerardiin I]	cytotoxic	cytotoxic	cytotoxic			IC50 [1]: 7.8 µM; IC50 ([1]; Mus musculus, 4T1, 48 h): < 10 µM; IC50 ([2]; Homo sapiens, MDA-MB-231, 48 h): < 10 µM; IC50 [2]: 8 µM; IC50 ([3]; Homo sapiens, hCMEC/D3): 21.6 µM
COc1cccc2c1C(=O)c1c(O)c3c(c(O)c1C2=O)C[C@@](O)(C(=O)CO)C[C@@H]3O[C@H]1C[C@H](N)[C@H](O)[C@H](C)O1 [doxorubicin, reference compound]						IC50 ([1]; Mus musculus, 4T1, 48 h): 3.4 µM; IC50 ([2]; Homo sapiens, MDA-MB-231, 48 h): 0.8 µM; IC50 ([3]; Homo sapiens, hCMEC/D3): 0.8 µM
